# Activity calls are given as the source filed them. The calls are words filed in the database; no cut-off is given here.
# Tests used:
# [1] = Binding affinity to 5'-terminal cyanine dye-labeled IRES subdomain 2a RNA (unknown origin) by FRET assay in presence of Mg2+
# [2] = Binding affinity to 5'-terminal cyanine dye-labeled IRES subdomain 2a RNA (unknown origin) at 200 uM by FRET assay
# [3] = Binding affinity to cap RNA (unknown origin) assessed as inhibition of cap-dependent firefly luciferase reporter translation
# [4] = tested on: Internal ribosome entry site (IRES); experiment: Binding affinity to HCV IRES RNA assessed as inhibition of RNA translation at […] by luciferase reporter gene assay; conditions: Hepacivirus hominis
# [5] = Binding affinity to 5'-terminal cyanine dye-labeled IRES subdomain 2a RNA (unknown origin) at 200 uM by FRET assay in presence of tRNA
SMILES,Activity [1],Activity [2],inhibition [3],inhibition [4] [%],Activity [5]
CN(C)CC1COc2ccc3nc4n(c3c2C1)CC(CN(C)C)CN4 (stereo not drawn),Active,,,,
CN(C)CCCNc1nc2cc(N)ccc2o1,,Active,,,
CN(C)CCCn1c(N)nc2ccc3c(c21)CC(CN(C)C)CO3 (stereo not drawn),Dose-dependent effect,,,,
CN(C)CCCNc1nc2ccc(N)cc2o1,Dose-dependent effect,Active,inactive,30,Active
